Reference: patent publication US5968912A, “Methods for immunosuppressing” (Immune Modulation, Inc., priority 1997, dated 1999)
Where “and” joins values, the source holds several entries; their conditions need not be identical. Equal entries are not always repeated.

Assays:
[1] = tested on: Human T-lymphocyte-mediated cytolysis (cytotoxic CD8+ T-cells); assay: One-way MLR-generated T-lymphocyte-mediated cytolysis (CTL assay, 51Cr release); format: cell-based
[2] = tested on: NK cell activity (YAC-I cells as target); assay: NK cell cytotoxicity assay, cells of pretreated donor mice; format: in vivo, mouse (C57BL/6); settings: spleen, effector/target 100:1
Procedure: Elimination of endogenous and inducible NK cell activity from the cell donor mice (C57BL/6)
Six- to ten-week old C57BL/6 mice were treated for 24 hours orally or intravenously with HE-33. Orally-treated mice received 400 mg/kg twice a day (Bid), and intravenously treated mice received a single 100 mg/kg i.v.
NK Cell cytotoxicity assay: At the end of the 24 hour pre-treatment with HE-33, all treated mice and control, non-treated mice (i.e., mice treated with vehicle, PBS) were sacrificed by cervical dislocation. Spleens and lymph nodes were removed and single-cell suspension of pooled spleen and lymph nodes from mice in each group of donor were prepared in RPMI-1640 supplemented with 10% fetal bovine serum (FBS) and 1% penicillin/streptomycin. Target cells were ^51 Cr-labeled Moloney leukemia virus-induced lymphoma (YAC) tumor cells. Different effector:target cell ratios were cultured in triplicate samples in U-bottomed microtiter plates for 4 hours at 37° C. in a humidified atmosphere containing 5% CO2. The microtiter plates were then centrifuged, and 100-μL aliquots of supernatants were assayed for ^51 Cr release. Results were expressed as percent lysis and percent suppression of lysis. The method of Ojo-Amaize, E. et. al., Scand. Journal of Immunology, 1978, 7: 297-306, was used for the NK assays.

[3] = tested on: IL-4; assay: IL-4 production in PHA-stimulated PBMC cultures; format: cell-based, human; parameters: % Inhibition of IL-4 production: concentration or dose not given beside the values
Procedure: Production of autocrine growth factors (IL-2, IL-4, IL-10 and Interferon-gamma) in PHA-stimulated human PBMC cultures
Culture supernatants were collected at the times indicated and frozen at -20° C. At the end of 96 hr., all supernatants were assayed by enzyme immunoassay for the presence of the cytokines: interleukin-2, -4, -10 and interferon (IFN)-gamma. Results were expressed in pg/mL concentration of cytokine and % inhibition of cytokine production.

[4] = Single dose range-finding toxicity study in mice; format: in vivo, mouse (Swiss Webster); parameters: key to Clinical observation: Normal / Clinical observation: Vocalization / Clinical observation: Slow breathing / Clinical observation: Hypoactive / Clinical observation: FPSR / Clinical observation: Cool to touch / Clinical observation: Hypoactivity: Observations are recorded as present (x); not observed (--); settings: mouse, in vivo, single IV administration, mice
Procedure: (§1) Single dose range-finding study of HE-33 in mice
(§2) Swiss Webster mice (Charles River Laboratories, Hollister, Calif.) were used for the preliminary toxicology study. One mouse per dose level was administered a single intravenous (IV) dose of either 1.5, 15, 75, 100, 150, 200, 300 or 400 mg of HE-33/kg body weight. The dose volume for all mice receiving saline or formulations of HE-3 3 was 10 mL/kg body weight. All doses were administered as a slow-push IV injection in the tail vein. Day 1 of the study for each mouse occurred on the day of administration of the drug or the saline.
(§3) Clinical observations/body weights
(§4) Each mouse was observed closely for clinical signs of toxicity at approximately 10, 30 and 60 minutes and 5 hours after dosing on Day 1, and once daily on Days 2-8. In addition, mortality checks were performed twice daily. Body weights were obtained on each mouse prior to dosing on Day 1. Body weights (Day 1) for the mice used in this study ranged between 27.3 and 32.5 g (Table 8).
(§5) ^a Animals were dosed with saline adjusted to pH 8.55.
(§6) ^b Observations are recorded as present (x) or not observed (--).
(§7) ^c Additional observation was reported in the time interval closest t
(§8) ^d FPSR = Flattened posture with or without closed eyes; animal would
(§9) periodically have a startled response in response to or without a noise

[5] = tested on: Swiss Webster mice; assay: Single dose range-finding toxicity study in mice; format: in vivo, mouse (Swiss Webster); parameters: key to Clinical observation: Normal / Clinical observation: Vocalization / Clinical observation: Slow breathing / Clinical observation: Hypoactive / Clinical observation: FPSR / Clinical observation: Cool to touch / Clinical observation: Hypoactivity: Observations are recorded as present (x); not observed (--)
Procedure: as §1, §2, §3, §4, §5, §6, §7, §8, §9

[6] = animal 3, 75 mg/kg IV, 30 min to day 8
[7] = animal 4, 150 mg/kg IV, 10, 30, 60 min
[8] = animal 4, 150 mg/kg IV, 5 hr to day 8
[9] = animal 5, 300 mg/kg IV, 10 min to 5 hr
[10] = animal 5, 300 mg/kg IV, days 2-8
[11] = animal 11, 300 mg/kg IV, 30, 60 min
[12] = animal 11, 300 mg/kg IV, 10 min and 5 hr to day 8

CCCN(CCC)c1ncnc2c1ncn2[C@@H]1O[C@@H]2COP(=O)(O)O[C@H]2[C@H]1O [HE-33, N^6,N^6 -di-n-Propyl-c-AMP]
% Specific Lysis ([1]; 100 μM, E:T 25:1): 4% | inhibition at 100 µM ([1]; Homo sapiens, T-cell, E:T 25:1, read-out: % Inhibition of lysis): 80% | Percent Lysis (NK cell activity) ([2]; 100 mg/kg IV): 14% | Percent Lysis (NK cell activity) ([2]; 400 mg/kg (Bid) oral): 5% | Percent Suppression of NK cell activity ([2]; 400 mg/kg (Bid) oral): ~80% and 76% | % Inhibition of IL-4 production ([3]; 24 hours): 0% | IL-4 production ([3]; 24 hours): 1041 pg/mL | % Inhibition of IL-4 production ([3]; 48 hours): 87% | IL-4 production ([3]; 48 hours): 193 pg/mL | % Inhibition of IL-4 production ([3]; 72 hours): 26% | IL-4 production ([3]; 72 hours): 860 pg/mL | % Inhibition of IL-4 production ([3]; 96 hours): 25% | IL-4 production ([3]; 96 hours): 101 pg/mL | No-effect level (NOEL) [4]: 100 mg/kg | MTD ([4]; read-out: maximum tolerated dose (MTD)): ≥ 400 mg/kg | Clinical signs of toxicity ([5]; 150-400 mg/kg IV, between 10 minutes and 5 hrs after dosing on Day 1): signs of hypoactivity, flattened posture with or without closed eyes and slow breathing | Clinical observation: Normal ([5]; animal 1, 1.5 mg/kg IV, all times 10 min to day 8): x | Clinical observation: Normal ([5]; animal 2, 15 mg/kg IV, all times 10 min to day 8): x | Clinical observation: Normal ([5]; animal 3, 75 mg/kg IV, 10 min): -- | Clinical observation: Vocalization ([5]; animal 3, 75 mg/kg IV, 10 min): x | Clinical observation: Normal [5, 6]: x | Clinical observation: Vocalization [5, 6]: -- | Clinical observation: FPSR [5, 7]: x | Clinical observation: Hypoactive [5, 7]: x | Clinical observation: Normal [5, 7]: -- | Clinical observation: Slow breathing [5, 7]: x | Clinical observation: FPSR [5, 8]: -- | Clinical observation: Hypoactive [5, 8]: -- | Clinical observation: Normal [5, 8]: x | Clinical observation: Slow breathing [5, 8]: -- | Clinical observation: FPSR ([5]; animal 5, 300 mg/kg IV, 10, 30, 60 min): x | Clinical observation: Cool to touch ([5]; animal 5, 300 mg/kg IV, 10, 30, 60 min and days 2-8): -- | Clinical observation: Hypoactivity [5, 9]: x | Clinical observation: Normal [5, 9]: -- | Clinical observation: Slow breathing [5, 9]: x | Clinical observation: Cool to touch ([5]; animal 5, 300 mg/kg IV, 5 hr): x | Clinical observation: FPSR ([5]; animal 5, 300 mg/kg IV, 5 hr to day 8): -- | Clinical observation: Hypoactivity [5, 10]: -- | Clinical observation: Normal [5, 10]: x | Clinical observation: Slow breathing [5, 10]: -- | Clinical observation: Normal ([5]; animal 8, 100 mg/kg IV, all times 10 min to day 8): x | Clinical observation: Normal ([5]; animal 9, 200 mg/kg IV, all times 10 min to day 8): x | Clinical observation: Normal ([5]; animal 10, 200 mg/kg IV, all times 10 min to day 8): x | Clinical observation: FPSR [5, 11]: x | Clinical observation: Hypoactivity [5, 11]: x | Clinical observation: Normal [5, 11]: -- | Clinical observation: Slow breathing [5, 11]: x | Clinical observation: FPSR [5, 12]: -- | Clinical observation: Hypoactivity [5, 12]: -- | Clinical observation: Normal [5, 12]: x | Clinical observation: Slow breathing [5, 12]: -- | Clinical observation: Slow breathing ([5]; animal 12, 400 mg/kg IV, 10, 30, 60 min and days 2-8): -- | Clinical observation: FPSR ([5]; animal 12, 400 mg/kg IV, 10 min): -- | Clinical observation: Normal ([5]; animal 12, 400 mg/kg IV, 10 min and days 2-8): x | Clinical observation: FPSR ([5]; animal 12, 400 mg/kg IV, 30 min): x | Clinical observation: Normal ([5]; animal 12, 400 mg/kg IV, 30 min, 60 min, 5 hr): -- | Clinical observation: FPSR ([5]; animal 12, 400 mg/kg IV, 60 min, 5 hr): x | Clinical observation: Slow breathing ([5]; animal 12, 400 mg/kg IV, 5 hr): x | Clinical observation: FPSR ([5]; animal 12, 400 mg/kg IV, days 2-8): -- | Condition after Day 1 ([5]; drug-treated groups, Days 2 to 8): normal between Days 2 and 8 | Survival for the duration of the study ([5]; single IV 1.5-400 mg/kg, 8 days): All mice survived for the duration of the study
